For seven molecules, TGI and GI50 results are on record in PubChem BioAssay (NCI).

“And” between values parts separate entries of the source, which are not always exact repeats. Identical values can stand only once.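 Protocol summary: plate cells (96-well), add compound at 5 concentrations, incubate 48 h, interpolate endpoints linearly. GI50 = concentration required for 50% inhibition of growth. TGI is the concentration that stops growth completely.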 A value given as a limit tells only on which side of the number the result lay.

Holding throughout (experiment): NCI anticancer screen, dose series, 48 h
Assay [1] has as its system SK-OV-3 ovarian.
Assay [2] deals with COLO 205 colon.
Assay [3] concerns UACC-257 melanoma.
Assay [4] relates to KM12 colon.
The subject of assay [5] is SNB-19 CNS.
In assay [6] the test system is NCI-H460 lung.
Assay [7] has as its system SF-295 CNS.
In assay [8] the test system is DLD-1 colon.
Assay [9] relates to UO-31 renal.
Assay [10] relates to SR leukemia.
Assay [11] relates to XF 498 CNS.
The test system of assay [12] is NCI-H226 lung.
For assay [13], the system named is KM20L2 colon.
Assay [14] relates to DMS 114 small cell lung.
In assay [15] the test system is M19-MEL melanoma.

Turning to `CCN(CC)CCO[Si](OCCN(CC)CC)(OCCN(CC)CC)OCCN(CC)CC`, the TGI in [1], in [2], in [3], in [4], in assay [5] and in assay [6] was over 100 µM throughout. Further, the TGI in [7], in assay [8], in assay [9], in [10], in assay [11] and in assay [12] was over 100 µM each time. For the same molecule, the TGI in [13], in assay [14] and in assay [15] was over 100 µM in each case.
In the case of `O=C(CCC1CCCCN1)Nc1ccc2c(c1)C(=O)c1ccc(NC(=O)CCN3CCCCC3)cc1C2=O` (centres undefined), the TGI in [1] worked out at 70.1 µM; in [2] it was 2.65 µM; in assay [3] it was 2.94 µM; in assay [4], 6.99 µM; in assay [6] it was 23.9 µM; in [7] it was 20.8 µM. Further, the TGI is 6.37 µM in assay [8]; 2.68 µM in [9]; over 100 µM in assay [10]; 18.6 µM in [12]; 14.5 µM in assay [13]; 2.97 µM in [14]. The same molecule registered a TGI in assay [15] of 5.71 µM.
Consider `COC(=O)C1c2cc3c(c(O)c2C(O)CC1(C)O)C(=O)c1c(O)cc2c(c1C3=O)OC1OC2(C)C(O)C(N(C)C)C1O` (centres undefined), for which the TGI was over 27.8 µM in assay [1]; over 32.4 µM in [2]; over 19.9 µM in assay [4]; over 100 µM in assay [5]; over 100 µM in assay [6]; over 100 µM in assay [7]. Besides, the TGI is over 100 µM in assay [8]; over 100 µM in [10]; over 100 µM in [11]; over 31.9 µM in [12]; over 100 µM in assay [13]; over 100 µM in [14]. The TGI in [15] was over 100 µM.
In the case of `NC(=O)Oc1ccccc1`, the TGI in assay [1], in assay [2], in assay [3], in assay [4], in assay [5] and in [6] was over 100 µM throughout. The TGI in assay [7], in [9], in assay [10] and in assay [12] was over 100 µM in each case.
Regarding `CC1OC(=O)C(C(C)C)NC(=O)C(C(C)C)OC(=O)C(C(C)C)NC(=O)C(C)OC(=O)C(C(C)C)NC(=O)C(C(C)C)OC(=O)C(C(C)C)NC(=O)C(C)OC(=O)C(C(C)C)NC(=O)C(C(C)C)OC(=O)C(C(C)C)NC1=O` (centres undefined), the TGI in [1] was 0.225 µM; in assay [3], 0.145 µM; in assay [5], 1.25 µM; in assay [6] it was 0.182 µM and 0.185 µM; in [8], 2.05 µM; in assay [9], 0.0541 µM. In addition, the TGI was 0.779 µM in assay [12], 0.493 µM in assay [13], 0.0191 µM in [14] and 6.28 µM in assay [15]. The GI50 in [2], in assay [4], in assay [5], in assay [6] and in [7] was under 0.0001 µM throughout.
For the molecule `CCOC(C)OC1CC(n2cc(C)c(=O)[nH]c2=O)OC1CO` (centres undefined), the TGI in assay [1], in assay [2], in assay [3], in assay [4], in assay [5] and in assay [6] was over 100 µM in each case. Further, the TGI in [7], in [8], in assay [9], in assay [10], in [11] and in assay [12] was over 100 µM in each case. Also, the TGI in assay [13], in [14] and in assay [15] was over 100 µM in each case.
`CN1CN(C(=O)N2CN(C)C(=O)N(C)C2)CN(C)C1=O`: the TGI in assay [1], in assay [2], in assay [3], in [4], in [5] and in [7] was over 100 µM in each case. Also, the TGI in [8], in [9], in assay [11], in assay [12], in assay [13] and in assay [14] was over 100 µM in each case. The same molecule displayed a TGI in assay [15] of over 100 µM.
